# Laboratory results reported in patent US11246961B2, “Engineered scaffolds for vascularized tissue repair” (The Regents of the University of California, priority 2016, dated 2022).
# Entries after “also recorded” stand apart in the source; their conditions may differ.
# Tests used:
# [1] = tested on: HCAECs; experiment: on-bead whole cell binding assay, HCAECs; assay type: cell-based, human
# From the text: Human coronary artery endothelial cells (HCAECs) were purchased from ATCC. Human cardiac microvascular endothelial cells (HMVECs) were purchased from Lonza. THP-1 monocytes were obtained from Dr. Pamela Lein (University of California, Davis). The myeloid leukemia K562 cells that have been transfected with human integrin αvβ3 gene (αvβ3-K562 cells) were provided by Dr. Yoshikazu Takada and the K562 cells transfected with human integrin αIIbβ3 gene (αIIb3-K562 cells) were provided Dr. Jennifer Cochran (Stanford University)
# HECFCs, HCAECs, HMVECs and THP-1 monocytes were cultured in their respective growth medium as described in Example 1. For cell bead-binding assay, 6×10^5 HECFCs, HCAECs, HMVECs or THP-1 monocytes in 2 mL of their respective culture medium were added to an ultra-low attachment 35-mm petri dish (Corning Incorporated) followed by resin beads (Lam et al. (1991) Nature 354:82). The dishes were incubated in a shaking incubator at 37° C., 5% CO2 for various time points at 40 rpm. For platelet bead-binding assay, the platelets isolated as described in Example 1 were added to an ultra-low attachment 35-mm petri dish and incubated with the resin beads in the shaking incubator as described for the cell-bead binding assy. Phase contrast images were taken at different time points using an Olympus IX81 microscope.
# Three integrin-targeting ligands—LXY30 (α3β1), LLP2A (α4β1) and LXW7 (αvβ3)—were tested for their binding activities to EPCs and ECs. […] LXY30 only bound to ECs, not to EPCs. LLP2A only bound to EPCs, not to ECs. LXW7 bound well to both EPCs and ECs.
# [2] = tested on: VEGFR2 (Tyr1175); experiment: Western-blot analysis, phosphorylation of VEGFR2; assay type: cell-based, human; settings: LXW7 treated surface, 96 hours, vs D-biotin
# Experimental: (§1) The 100-mm dishes from Example 2 were treated with Avidin followed by LXW7-bio or D-biotin as described in Example 5. 8×10^5 HCAECs were seeded per dish and cultured in EGM-2 media for 4 days. Cells were lysed using Extraction Kit (Thermo Fisher Scientific) and protein concentrations were determined using BCA Protein Assay (Thermo Fisher Scientific). Fifteen μg of each sample were loaded and separated using a 4-12% Bis-Tris NuPAGE gel (Thermo Fisher Scientific) and transferred to a nitrocellulose membrane. The membrane was blocked in 5% BSA in TBST (Tris-buffered saline with 0.5% Tween-20), and subsequently incubated with primary antibodies anti-VEGF Receptor 2, anti-Phospho-VEGF Receptor 2, anti-p44/42 MAPK (Erk1/2) and anti-Phospho-p44/42 MAPK (Erk1/2) (Thr202/Tyr204), all purchased from Cell Signaling Technologies, in 1% BSA overnight at 4° C. After washing three times with TBST, the membranes were incubated with respective horseradish peroxidase-conjugated secondary antibodies in 1% non-fat dry milk in TBST (BioRad) for 1 hour at room temperature. After washing, the protein bands were visualized using West Dura Substrate (Thermo Fisher Scientific) and quantified using Image J software.
# [3] = tested on: THP-1 monocytes; experiment: flow cytometry ligand-cell binding, THP-1 monocytes; settings: biotinylated ligand 1 μM
# Experimental: FIG. 10 presents flow cytometry data from an assay of binding affinity of LXW7 and GRGD (SEQ ID NO: 1) to different cell types. Tests included EPCs/ECs from different sources, including HECFCs (A), HCAECs (B), HMVECs (C), and THP-1 monocytes (D), Platelets (E), as well as K562 cells engineered to highly express αvβ3 (αvβ3-K562, F), and αIIbβ3 (αIIbβ3-K562, G). Cells were incubated with the LXW7-bio, GRGD-bio (SEQ ID NO: 1), or D-Biotin peptide and subsequently incubated with streptavidin-phycoerythrin. Flow cytometry analysis was performed to determine the binding affinity of the ligands. Samples treated with D-biotin were used as negative controls.
# LXW7-bio (1 μM) was incubated with 3×10^5 HECFCs, HCAECs, HMVECs, αvβ3-K562 and αIIbβ3-K562 cells and THP-1 monocytes and 1×10^8 platelets in binding buffer (HEPES containing 10% FBS) on ice for 30 minutes. The samples were washed three times with DPBS containing 1% FBS and incubated with 2 μg/ml of streptavidin-phycoerythrin on ice for 30 minutes and then washed with DPBS. Samples were analyzed on a BD Fortessa LSR Cell Analyzer and further data analysis and gating were performed using FlowJo software (Treestar, Inc.).
# [4] = tested on: ERK1/2; experiment: Western-blot analysis, phosphorylation of ERK1/2; assay type: cell-based, human; settings: LXW7 treated surface, 96 hours, vs D-biotin
# Experimental: as §1
# [5] = tested on: VEGFR-2; experiment: mRNA level of VEGFR-2 on EPCs; assay type: cell-based; settings: EPCs treated with LXW7
# Experimental: FIG. 15 presents graphs of mRNA levels of VEGFR-2 (A) and EGFR (B) on EPCs after treating with different concentrations of LXW7 for 48 h. *P<0.05 vs. Control, #P<0.05 vs. 25 nM (n=10 per group).
substance,measurement,setting,value
cGRGDdvc [LXW7],attachment of HCAECs to beads displaying LXW7,"[1]; 10 minutes, 30 minutes or 2 hours",efficiently supported attachment of EPCs/ECs from different sources; also recorded: efficiently supported EPC/EC attachment
same,binding of HCAECs to ligand-displaying resin beads,[1]; 2 hours incubation,bound both HECFCs and HCAECs
same,phosphorylation of VEGFR2 (Tyr1175) in ECs,[2],significantly increased
same,binding to THP-1 monocytes by flow cytometry,[3],did not bind to THP-1 monocytes
same,phosphorylation of ERK1/2 in ECs,[4],significantly increased
same,VEGFR2 mRNA level,[5],increases in VEGFR2 and EGFR mRNA levels were found to be dependent on treatment time
